Key:
Assay in all cases: relative viability (nuclei count vs DMSO), 5 days (fraction); higher = more cells survive
LK-2 = system: LK-2
Outline: (§1)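 Five library-drug doses in √10 steps were combined with a fixed anchor-drug dose, or a single drug was given alone, by pin tool to lung cancer cell lines in 1536-well plates the day after seeding. Nuclei were stained and counted after 5 days. Relative viability is the nuclei count in treated wells over that in vehicle wells, taken as the median of duplicate plates.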

NCI-H520 = system: NCI-H520
Outline: as §1

NCI-H1355 = system: NCI-H1355
Outline: as §1

LCLC-103H = system: LCLC-103H
Outline: as §1

COR-L 105 = system: COR-L 105
Outline: as §1

NCI-H1648 = system: NCI-H1648
Outline: as §1

NCI-H522 = system: NCI-H522
Outline: as §1

A549 = system: A549
Outline: as §1

COc1nc(C)cnc1NS(=O)(=O)c1cccnc1-c1ccc(-c2nnco2)cc1 [Zibotentan] + CC(=O)Nc1cccc(-n2c(=O)n(C3CC3)c(=O)c3c(Nc4ccc(I)cc4F)n(C)c(=O)c(C)c32)c1 [Trametinib] (partner 0.02 µM)
relative viability (LK-2; first compound 0.08 µM): 0.881 | relative viability (LK-2; first compound 0.253 µM): 0.793 | relative viability (LK-2; first compound 0.8 µM): 0.83 | relative viability (LK-2; first compound 2.53 µM): 0.703 | relative viability (NCI-H520; first compound 0.08 µM): 0.803 | relative viability (NCI-H520; first compound 0.253 µM): 0.704 | relative viability (NCI-H520; first compound 0.8 µM): 0.631 | relative viability (NCI-H520; first compound 2.53 µM): 0.79 | relative viability (NCI-H1355; first compound 0.08 µM): 0.399 | relative viability (NCI-H1355; first compound 0.253 µM): 0.437 | relative viability (NCI-H1355; first compound 0.8 µM): 0.402 | relative viability (NCI-H1355; first compound 2.53 µM): 0.438 | relative viability (LCLC-103H; first compound 0.08 µM): 0.685 | relative viability (LCLC-103H; first compound 0.253 µM): 0.704 | relative viability (LCLC-103H; first compound 0.8 µM): 0.68 | relative viability (LCLC-103H; first compound 2.53 µM): 0.737 | relative viability (COR-L 105; first compound 0.08 µM): 0.403 | relative viability (COR-L 105; first compound 0.253 µM): 0.411 | relative viability (COR-L 105; first compound 0.8 µM): 0.482 | relative viability (COR-L 105; first compound 2.53 µM): 0.475 | relative viability (NCI-H1648; first compound 0.08 µM): 0.49 | relative viability (NCI-H1648; first compound 0.253 µM): 0.529 | relative viability (NCI-H1648; first compound 0.8 µM): 0.442 | relative viability (NCI-H1648; first compound 2.53 µM): 0.604 | relative viability (NCI-H522; first compound 0.08 µM): 0.732 | relative viability (NCI-H522; first compound 0.253 µM): 0.667 | relative viability (NCI-H522; first compound 0.8 µM): 0.727 | relative viability (NCI-H522; first compound 2.53 µM): 0.856

O=c1cc(N2CCOCC2)oc2c(-c3cccc4c3sc3ccccc34)cccc12 + CC(=O)Nc1cccc(-n2c(=O)n(C3CC3)c(=O)c3c(Nc4ccc(I)cc4F)n(C)c(=O)c(C)c32)c1 [Trametinib] (partner 0.02 µM)
relative viability (LK-2; first compound 0.01 µM): 0.808 | relative viability (LK-2; first compound 0.03162 µM): 0.807 | relative viability (LK-2; first compound 0.1 µM): 0.957 | relative viability (LK-2; first compound 0.3162 µM): 0.515 | relative viability (LK-2; first compound 1 µM): 0.902 | relative viability (NCI-H520; first compound 0.01 µM): 1.14 | relative viability (NCI-H520; first compound 0.03162 µM): 0.594 | relative viability (NCI-H520; first compound 0.1 µM): 0.768 | relative viability (NCI-H520; first compound 0.3162 µM): 0.717 | relative viability (NCI-H520; first compound 1 µM): 0.732 | relative viability (NCI-H1355; first compound 0.01 µM): 0.435 | relative viability (NCI-H1355; first compound 0.03162 µM): 0.435 | relative viability (NCI-H1355; first compound 0.1 µM): 0.435 | relative viability (NCI-H1355; first compound 0.3162 µM): 0.409 | relative viability (NCI-H1355; first compound 1 µM): 0.399 | relative viability (LCLC-103H; first compound 0.01 µM): 0.712 | relative viability (LCLC-103H; first compound 0.03162 µM): 0.698 | relative viability (LCLC-103H; first compound 0.1 µM): 0.678 | relative viability (LCLC-103H; first compound 0.3162 µM): 0.652 | relative viability (LCLC-103H; first compound 1 µM): 0.663 | relative viability (COR-L 105; first compound 0.01 µM): 0.414 | relative viability (COR-L 105; first compound 0.03162 µM): 0.427 | relative viability (COR-L 105; first compound 0.1 µM): 0.446 | relative viability (COR-L 105; first compound 0.3162 µM): 0.451 | relative viability (COR-L 105; first compound 1 µM): 0.429 | relative viability (NCI-H1648; first compound 0.03162 µM): 0.471 | relative viability (NCI-H1648; first compound 0.1 µM): 0.5 | relative viability (NCI-H1648; first compound 0.3162 µM): 0.446 | relative viability (NCI-H1648; first compound 1 µM): 0.483 | relative viability (NCI-H522; first compound 0.01 µM): 0.733 | relative viability (NCI-H522; first compound 0.03162 µM): 0.86 | relative viability (NCI-H522; first compound 0.1 µM): 0.793 | relative viability (NCI-H522; first compound 0.3162 µM): 0.684 | relative viability (NCI-H522; first compound 1 µM): 0.963

O=c1cc(-c2cccc3c2Sc2ccccc2S3)oc(N2CCOCC2)c1 + Nc1ncn([C@H]2C[C@H](O)[C@@H](CO)O2)c(=O)n1 [Decitabine] (partner 2 µM)
relative viability (LK-2; first compound 0.08 µM): 0.245 | relative viability (LK-2; first compound 0.253 µM): 0.341 | relative viability (LK-2; first compound 0.8 µM): 0.244 | relative viability (LK-2; first compound 2.53 µM): 0.255 | relative viability (LK-2; first compound 8 µM): 0.335 | relative viability (NCI-H520; first compound 0.08 µM): 0.518 | relative viability (NCI-H520; first compound 0.253 µM): 0.623 | relative viability (NCI-H520; first compound 0.8 µM): 0.577 | relative viability (NCI-H520; first compound 2.53 µM): 0.499 | relative viability (NCI-H520; first compound 8 µM): 0.548 | relative viability (NCI-H1355; first compound 0.08 µM): 0.374 | relative viability (NCI-H1355; first compound 0.253 µM): 0.382 | relative viability (NCI-H1355; first compound 0.8 µM): 0.342 | relative viability (NCI-H1355; first compound 2.53 µM): 0.373 | relative viability (NCI-H1355; first compound 8 µM): 0.331 | relative viability (LCLC-103H; first compound 0.08 µM): 0.721 | relative viability (LCLC-103H; first compound 0.253 µM): 0.716 | relative viability (LCLC-103H; first compound 0.8 µM): 0.646 | relative viability (LCLC-103H; first compound 2.53 µM): 0.675 | relative viability (LCLC-103H; first compound 8 µM): 0.702 | relative viability (COR-L 105; first compound 0.08 µM): 0.603 | relative viability (COR-L 105; first compound 0.253 µM): 0.568 | relative viability (COR-L 105; first compound 0.8 µM): 0.583 | relative viability (COR-L 105; first compound 2.53 µM): 0.612 | relative viability (COR-L 105; first compound 8 µM): 0.74 | relative viability (NCI-H1648; first compound 0.253 µM): 0.501 | relative viability (NCI-H1648; first compound 0.8 µM): 0.553 | relative viability (NCI-H1648; first compound 8 µM): 0.54 | relative viability (NCI-H522; first compound 0.08 µM): 0.693 | relative viability (NCI-H522; first compound 0.253 µM): 0.743 | relative viability (NCI-H522; first compound 0.8 µM): 0.689 | relative viability (NCI-H522; first compound 2.53 µM): 0.66 | relative viability (NCI-H522; first compound 8 µM): 0.796 | relative viability (A549; first compound 0.08 µM): 0.259 | relative viability (A549; first compound 0.253 µM): 0.325 | relative viability (A549; first compound 0.8 µM): 0.263 | relative viability (A549; first compound 2.53 µM): 0.106 | relative viability (A549; first compound 8 µM): 0.334
